Results published in US20220340679A1, “CO-INHIBITION OF CD47/SIRPalpha BINDING AND NEDD8-ACTIVATING ENZYME E1 REGULATORY SUBUNIT FOR THE TREATMENT OF CANCER” (Gilead Sciences, Inc., priority 2021, published 2022).
“Also recorded” adds a separate entry of the source.

B1: magrolimab: anti-CD47 antibody (antibody, chains of the INN, looked up, V domains shown)
VH: QVQLVQSGAEVKKPGASVKVSCKASGYTFTNYNMHWVRQAPGQRLEWMGTIYPGNDDTSYNQKFKDRVTITADTSASTAYMELSSLRSEDTAVYYCARGGYRAMDYWGQGTLVTVSS
VL: DIVMTQSPLSLPVTPGEPASISCRSSQSIVYSNGNTYLGWYLQKPGQSPQLLIYKVSNRFSGVPDRFSGSGSGTDFTLKISRVEAEDVGVYYCFQGSHVPYTFGQGTKLEIK

System: U937 AML cells
Test: AML xenograft model: luciferase-expressing U937 tumor cells in NSG mice, in-vivo bioluminescent imaging
Conditions: U937 i.v., azacitidine 7.5 mg/kg QD 5 days i.p., NAE1 SMI 120 mg/kg QD 5 days on, 2 days rest, magrolimab 250 μg QD
Experimental: FIG. 3 illustrates that NAE1 inhibition in combination with CD47 blockade elicits robust anti-tumor efficacy in an AML xenograft model. Luciferase-expressing U937 tumor cell were transferred to NSG mice by intravenous injection. On day 5, mice were randomized into cohorts and treated with Vehicle [20% (2-Hydroxypropyl)-β-cyclodextrin], azacitidine (7.5 mg/kg QD for 5 days), or NAE1 small molecule inhibitor (120 mg/kg QD for 5 days followed by 2 days/rest) by intraperitoneal injection. Magrolimab was administered 48 hours post chemo treatment (250 μg QD for the entire study) as a single agent or in combination. Tumor growth was monitored using in-vivo bioluminescent imaging and the resulting signal was reported as total flux.
To evaluate, if the combination of NAE1 SMI with magrolimab could increase the elimination of leukemia cells in vivo, a treatment study was conducted in mice transplanted with U937 AML cells. In addition to NAE1 SMI, azacitidine, a hypomethylating and chemotherapeutic agent indicated for AML was also included into the study, since azacitidine had previously been established to enhance elimination of AML cells when combined with magrolimab (Chao, et al., Front Oncol (2020) 9:1380). […]

Molecule | tumor growth / cancer remission (result in words)
Nc1ncn([C@@H]2O[C@H](CO)[C@@H](O)[C@H]2O)c(=O)n1 [azacitidine, 5-azacytidine, reference compound] | did initially slow tumor growth compared to vehicle control but failed to stop cancer progression
B1 | did initially slow tumor growth compared to vehicle control but failed to stop cancer progression; also recorded: modest
